Paper PMC5655141, “Allosteric fine-tuning of the conformational equilibrium poises the chaperone BiP for post-translational regulation” (eLife, 2017)

Columns and labels:
Assay in all cases: ITC
Assay type in all cases: binding
[1] = biological target: T1, AMPylated BiP* FL (Cricetulus griseus, UniProt G3I8R9, T229G/V461F)
T1 construct: gene HSPA5; T229G
Source text: ITC on AMPylated BiP* FL | nucleotide (ATP or ADP) binding to non-AMPylated and AMPylated V461F BiP* measured by ITC

[2] = biological target: T2, BiP* FL (full-length T229G BiP, BiP(1-641)) (Cricetulus griseus, UniProt G3I8R9, T229G/V461F)
T2 construct: gene HSPA5; full-length two-domain BiP, residues 1-641 as printed, non-cleavable N-terminal 6xHis tag, pET28a, E. coli BL21(DE3); ATPase-deficient T229G; non-AMPylated
T2 sequence (G3I8R9 1-641 T229G/V461F): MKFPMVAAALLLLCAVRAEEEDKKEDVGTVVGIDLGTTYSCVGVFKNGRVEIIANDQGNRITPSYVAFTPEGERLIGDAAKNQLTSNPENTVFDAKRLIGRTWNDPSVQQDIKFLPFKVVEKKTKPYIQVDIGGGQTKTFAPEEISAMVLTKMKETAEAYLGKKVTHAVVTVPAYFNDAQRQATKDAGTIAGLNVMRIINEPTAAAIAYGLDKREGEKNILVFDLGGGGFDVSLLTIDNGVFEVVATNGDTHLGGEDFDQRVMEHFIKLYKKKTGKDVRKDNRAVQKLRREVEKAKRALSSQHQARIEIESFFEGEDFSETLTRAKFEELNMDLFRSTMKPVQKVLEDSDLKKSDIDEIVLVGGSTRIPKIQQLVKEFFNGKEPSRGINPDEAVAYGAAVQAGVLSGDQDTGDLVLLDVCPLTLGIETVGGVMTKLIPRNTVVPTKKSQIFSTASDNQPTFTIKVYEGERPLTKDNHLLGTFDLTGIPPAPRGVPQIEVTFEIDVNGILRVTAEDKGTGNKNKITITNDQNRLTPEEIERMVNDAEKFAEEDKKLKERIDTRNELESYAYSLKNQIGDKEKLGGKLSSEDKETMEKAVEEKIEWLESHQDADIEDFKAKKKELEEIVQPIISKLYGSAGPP
Source text: ITC on BiP* FL (full-length T229G BiP, BiP(1-641)) | ATP and ADP binding obtained from ITC experiments for FL BiP*

[3] = biological target: T3, BiP* FL (full-length T229G BiP, BiP(1-641)) (Cricetulus griseus, UniProt G3I8R9, T229G)
T3 construct: gene HSPA5; full-length two-domain BiP, residues 1-641 as printed, non-cleavable N-terminal 6xHis tag, pET28a, E. coli BL21(DE3); ATPase-deficient T229G; non-AMPylated
T3 sequence (G3I8R9 1-641 T229G): as the sequence (G3I8R9 1-641 T229G/V461F) above, with F461V counted along it
Source text: ITC on BiP* FL (full-length T229G BiP, BiP(1-641))

[4] = biological target: T4, BiP* NBD(1-417) (Cricetulus griseus, UniProt G3I8R9, T229G)
T4 construct: gene HSPA5; T229G
T4 sequence (G3I8R9 1-417 T229G): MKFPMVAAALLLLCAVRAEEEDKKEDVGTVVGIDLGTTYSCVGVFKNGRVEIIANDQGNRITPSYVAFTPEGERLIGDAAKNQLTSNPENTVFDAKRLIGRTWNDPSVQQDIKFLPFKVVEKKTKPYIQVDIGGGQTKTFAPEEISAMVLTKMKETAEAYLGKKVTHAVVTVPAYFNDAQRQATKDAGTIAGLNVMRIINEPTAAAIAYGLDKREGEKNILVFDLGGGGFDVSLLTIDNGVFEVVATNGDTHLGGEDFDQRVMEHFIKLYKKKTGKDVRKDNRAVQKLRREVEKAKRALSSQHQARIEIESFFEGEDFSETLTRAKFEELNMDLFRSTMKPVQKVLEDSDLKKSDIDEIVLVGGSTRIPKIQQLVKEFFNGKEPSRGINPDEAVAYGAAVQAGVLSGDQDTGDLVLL

[5] = biological target: T5, BiP* NBD(1-413) (Cricetulus griseus, UniProt G3I8R9, T229G)
T5 construct: gene HSPA5; T229G
T5 sequence (G3I8R9 1-413 T229G): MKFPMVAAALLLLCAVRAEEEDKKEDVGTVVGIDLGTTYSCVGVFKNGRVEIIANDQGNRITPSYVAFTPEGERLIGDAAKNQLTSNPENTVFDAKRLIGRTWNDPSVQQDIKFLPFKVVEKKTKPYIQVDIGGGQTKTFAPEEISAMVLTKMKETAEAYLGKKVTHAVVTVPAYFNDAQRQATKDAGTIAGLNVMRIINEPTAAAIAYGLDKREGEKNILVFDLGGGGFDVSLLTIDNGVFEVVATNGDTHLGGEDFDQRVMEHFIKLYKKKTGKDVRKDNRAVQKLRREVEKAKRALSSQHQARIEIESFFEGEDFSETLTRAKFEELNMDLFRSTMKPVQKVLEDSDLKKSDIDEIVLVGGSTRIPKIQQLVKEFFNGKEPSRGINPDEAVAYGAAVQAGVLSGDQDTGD

T1 sequence (G3I8R9 1-641 T229G/V461F): as the sequence (G3I8R9 1-641 T229G/V461F) above

Kd [1] [µM] | Kd [2] [µM] | Kd [3] [µM] | Kd [4] [µM] | Kd [5] [µM] | SMILES
0.07 | 0.21 | – | – | – | Nc1ncnc2c1ncn2[C@@H]1O[C@H](COP(=O)(O)OP(=O)(O)OP(=O)(O)O)[C@@H](O)[C@H]1O [ATP]
2.36 | 4.49 | 5.73 | 3.94 | 5.27 | Nc1ncnc2c1ncn2[C@@H]1O[C@H](COP(=O)(O)OP(=O)(O)O)[C@@H](O)[C@H]1O [ADP]
